ChEMBL document CHEMBL3297647, “Biological evaluation of subglutinol a as a novel immunosuppressive agent for inflammation intervention” (ACS Med Chem Lett, 2014)
The source made the active and inactive calls. The calls are words filed in the database; no cut-off is given here.

Columns and labels:
[1] = test system: T-cell; test: Induction of apoptosis in LLO118 TCR transgenic mouse LLO (190 to 205)-activated CD4-positive T cells assessed as dead undivided cells at 100 nM after 48 hrs by CFSE dilution/flow cytometric analysis (reference value: 14.7%); format: functional
[2] = test system: T-cell; test: Induction of apoptosis in LLO118 TCR transgenic mouse LLO (190 to 205)-activated CD4-positive T cells assessed as dead divided cells at 100 nM after 48 hrs by CFSE dilution/flow cytometric analysis (reference value: 3.04%); format: functional
[3] = Antiinflammatory activity in LLO118 TCR transgenic mouse IL-2-competent CD4-positive T cells assessed as inhibition of LLO (190 to 205)-induced IL-2 production at 1 nM for 2 days by flow cytometric analysis relative to control; format: functional; details: T-cell, 48 h
[4] = test system: T-cell; test: Antiinflammatory activity in LLO118 TCR transgenic mouse IL-2-competent CD4-positive T cells assessed as inhibition of LLO (190 to 205)-induced IL-2 production at 100 nM for 2 days by flow cytometric analysis; format: functional, cell-based
[5] = Antiinflammatory activity in LLO118 TCR transgenic mouse Th1 cells assessed as inhibition of IFN-gamma production at 10 nM for 2 days by flow cytometric analysis (reference value: 90%); format: functional; design: scale not given: the % may be the effect or the level left
[6] = test system: Th17; test: Antiinflammatory activity in LLO118 TCR transgenic mouse Th17 cells assessed as inhibition of IL-17 production at 10 to 100 nM for 2 days by flow cytometric analysis; format: functional, cell-based
[7] = test system: Th1; test: Reduction in mitochondrial mass in LLO118 TCR transgenic mouse Th1 cells at 50 to 100 nM for 2 days by MitoTracker Deep Red FM staining-based flow cytometric analysis; format: functional, cell-based
[8] = test system: Th17; test: Reduction in mitochondrial mass in LLO118 TCR transgenic mouse Th17 cells at 50 to 100 nM for 2 days by MitoTracker Deep Red FM staining-based flow cytometric analysis; format: functional, cell-based
[9] = test system: Th1; test: Induction of mitochondrial depolarization in LLO118 TCR transgenic mouse Th1 cells treated for 2 days by MitoTracker Orange CMTMRos staining-based flow cytometric analysis; format: functional, cell-based
[10] = test system: Th17; test: Induction of mitochondrial depolarization in LLO118 TCR transgenic mouse Th17 cells treated for 2 days by MitoTracker Orange CMTMRos staining-based flow cytometric analysis; format: functional, cell-based
[11] = test system: BMDC; test: Induction of mitochondrial depolarization in B6 mouse immature BMDC at 100 nM for 1 day by MitoTracker Orange CMTMRos staining-based flow cytometric analysis; format: functional
[12] = test system: BMDC; test: Reduction in mitochondrial mass in B6 mouse immature BMDC at 100 nM for 1 day by MitoTracker Deep Red FM staining-based flow cytometric analysis; format: functional
[13] = test system: BMDC; test: Reduction in mitochondrial mass in LPS-matured B6 mouse BMDC at 100 nM for 1 day by MitoTracker Deep Red FM staining-based flow cytometric analysis; format: functional
[14] = test system: BMDC; test: Induction of mitochondrial depolarization in LPS-matured B6 mouse BMDC at 100 nM for 1 day by MitoTracker Orange CMTMRos staining-based flow cytometric analysis; format: functional
[15] = test system: Mus musculus; test: Immunosuppressive activity in C57BL/6J mouse KLH-induced delayed-type hypersensitivity model assessed as alleviation of footpad swelling at 16 nmol administered on day 7 and 8 post-sensitization measured on day 9; format: functional, organism-based
[16] = test system: Mus musculus; test: Immunosuppressive activity in C57BL/6J mouse KLH-induced delayed-type hypersensitivity model assessed as blockade of lymphocyte accumulation at 16 nmol administered on day 7 and 8 post-sensitization measured on day 9; format: functional, organism-based
[17] = test system: Mus musculus; test: Immunosuppressive activity in C57BL/6J mouse KLH-induced delayed-type hypersensitivity model assessed as amelioration of tissue injury at 16 nmol administered on day 7 and 8 post-sensitization measured on day 9; format: functional, organism-based
[18] = test system: Lymphocyte; test: Immunosuppressive activity in lymphocytes by MLR assay; format: functional, cell-based
[19] = Immunosuppressive activity in C57Bl/6 mouse lymphocytes assessed as inhibition of cell proliferation co-incubated with BALB/c mouse stimulator lymphocytes after 72 hrs by [3H]-thymidine incorporation assay; format: functional, cell-based; details: C57Bl/6, Lymphocyte
[20] = test system: T-cell; test: Induction of apoptosis in pMel-1 TCR transgenic C57BL/6 mouse gp100 (25 to 33)-activated CD8-positive T cells assessed as live divided cells at 100 nM after 48 hrs by CFSE dilution/flow cytometric analysis (reference value: 55.2%); format: functional
[21] = test system: T-cell; test: Induction of apoptosis in pMel-1 TCR transgenic C57BL/6 mouse gp100 (25 to 33)-activated CD8-positive T cells assessed as live undivided cells at 100 nM after 48 hrs by CFSE dilution/flow cytometric analysis (reference value: 23.4%); format: functional
[22] = test system: T-cell; test: Induction of apoptosis in pMel-1 TCR transgenic C57BL/6 mouse gp100 (25 to 33)-activated CD8-positive T cells assessed as dead undivided cells at 100 nM after 48 hrs by CFSE dilution/flow cytometric analysis (reference value: 6.77%); format: functional
[23] = test system: T-cell; test: Induction of apoptosis in pMel-1 TCR transgenic C57BL/6 mouse gp100 (25 to 33)-activated CD8-positive T cells assessed as dead divided cells at 100 nM after 48 hrs by CFSE dilution/flow cytometric analysis (reference value: 14.7%); format: functional
[24] = test system: T-cell; test: Induction of apoptosis in LLO118 TCR transgenic mouse LLO (190 to 205)-activated CD4-positive T cells assessed as live divided cells at 100 nM after 48 hrs by CFSE dilution/flow cytometric analysis (reference value: 40.6%); format: functional
[25] = test system: T-cell; test: Induction of apoptosis in LLO118 TCR transgenic mouse LLO (190 to 205)-activated CD4-positive T cells assessed as live undivided cells at 100 nM after 48 hrs by CFSE dilution/flow cytometric analysis (reference value: 41.6%); format: functional

Row | SMILES | Activity [1] [%] | Activity [2] [%] | IC50 [18] [µM] | IC50 [19] [µM] | Activity [20] [%] | Activity [21] [%] | Activity [22] [%] | Activity [23] [%] | Activity [24] [%] | Activity [25] [%] | other results
1 | C=C1CC[C@H]2[C@]3(C)C[C@@H](C=C(C)C)O[C@H]3CC[C@]2(C)[C@@H]1Cc1c(O)c(C)c(C)oc1=O [SUBGLUTINOL A] | 82.6 | 3.29 | 0.025 | 0.1 | 1.04 | 12.3 | 83.6 | 3.09 | 0.73 | 13.4 | inhibition at 0.001 µM [3]: 50%; inhibition [4]: Active; Activity [5]: <1%; inhibition [6]: Active; Activity [7]: Active; Activity [8]: inactive; Activity [9]: Dose-dependent effect; Activity [10]: Dose-dependent effect; Activity [11]: inactive; Activity [12]: inactive; Activity [13]: inactive; Activity [14]: inactive; Activity [15]: Active; Activity [16]: Active; Activity [17]: Active
2 | C/C=C/C[C@@H](C)[C@@H](O)[C@H]1C(=O)N[C@@H](CC)C(=O)N(C)CC(=O)N(C)[C@@H](CC(C)C)C(=O)N[C@@H](C(C)C)C(=O)N(C)[C@@H](CC(C)C)C(=O)N[C@@H](C)C(=O)N[C@H](C)C(=O)N(C)[C@@H](CC(C)C)C(=O)N(C)[C@@H](CC(C)C)C(=O)N(C)[C@@H](C(C)C)C(=O)N1C [CYCLOSPORINE] | 86.1 | 10.9 | 0.089 |  | 0.68 | 2.01 | 86.5 | 10.8 | 1.02 | 1.94 | 
3 | C=C1CC[C@H]2[C@]3(C)C[C@H](C=C(C)C)O[C@H]3CC[C@]2(C)[C@@H]1Cc1c(O)c(C)c(C)oc1=O [SUBGLUTINOL B] |  |  |  | 0.1 |  |  |  |  |  |  | 
